What was measured:
[1] = molecular target: T1, human recombinant SERT (HEK293-hSERT cells) (Homo sapiens, UniProt P31645); assay: hSERT neurotransmitter uptake assay; format: cell-based; conditions: serotonin reuptake inhibition in HEK293-hSERT cells; read-out: SERT pIC50 (converted)
T1 construct: expressed in transfected cells; host or cells: HEK293 (stably transfected), whole cells
Experimental: HEK293 cells stably-transfected with human recombinant SERT (HEK293-hSERT) were grown in Dulbecco's Modified Eagle's Medium supplemented with 10% dialyzed fetal bovine serum, 100 µg/ml penicillin, 100 µg/ml streptomycin, 2 mM L-glutamine, and 250 μg/ml of the aminoglycoside antibiotic G418. Cells were incubated in a 5% CO2, humidified incubator at 37° C.
In pre-incubation studies, test compound was added to cells for 30 minutes at 37° C. prior to the addition of fluorescent substrate. […] For real-time measurements, compounds were either preincubated (as above) or mixed with substrate prior to addition, and kinetic measurements, relative fluorescence units (RFU integrated over 0.5 ms),were made using a cycle time of 1 min.

[2] = molecular target: T2, human recombinant serotonin transporter (hSERT) (Homo sapiens, UniProt P31645); assay: hSERT binding assay (3H-citalopram membrane radioligand binding); conditions: inhibition of 3H-citalopram binding to membranes from HEK-293 cells expressing hSERT; Cheng-Prusoff; read-out: SERT pKi (converted)
T2 construct: expressed in transfected cells; host or cells: HEK-293 (stably transfected), membrane preparation
T2 sequence (P31645 whole entry): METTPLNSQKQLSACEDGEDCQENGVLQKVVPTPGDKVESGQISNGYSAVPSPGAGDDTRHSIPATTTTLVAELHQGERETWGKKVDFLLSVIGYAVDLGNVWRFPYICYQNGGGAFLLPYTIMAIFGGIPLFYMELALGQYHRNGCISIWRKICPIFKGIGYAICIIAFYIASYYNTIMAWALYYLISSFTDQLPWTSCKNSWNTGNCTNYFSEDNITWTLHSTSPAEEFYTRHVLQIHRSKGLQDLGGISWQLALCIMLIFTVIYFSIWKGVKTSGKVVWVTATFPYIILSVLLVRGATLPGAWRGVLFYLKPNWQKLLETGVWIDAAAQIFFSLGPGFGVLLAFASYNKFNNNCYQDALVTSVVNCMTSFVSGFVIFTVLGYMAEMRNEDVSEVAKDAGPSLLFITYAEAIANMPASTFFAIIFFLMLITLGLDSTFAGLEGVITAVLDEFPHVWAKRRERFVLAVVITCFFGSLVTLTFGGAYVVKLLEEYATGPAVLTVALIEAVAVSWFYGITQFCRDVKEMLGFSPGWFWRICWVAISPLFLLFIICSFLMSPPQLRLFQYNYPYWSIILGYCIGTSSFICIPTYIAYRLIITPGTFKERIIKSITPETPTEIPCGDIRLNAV
Experimental: Protein concentration of the membrane suspension was determined using a Bio-Rad Bradford Protein Assay kit. Membranes were snap frozen and stored at −80° C.
Following a 60 minute incubation at 22° C. […] IC50 values were generated from concentration response curves using the Sigmoidal Dose Response (variable slope) algorithm in Prism GraphPad.

T1 sequence (P31645 whole entry): as above

IC50 [1] | Ki [2] | SMILES
≤ 10 nM | ≤ 10 nM | CC(=O)N(C[C@@H](Oc1ccc(C(F)(F)F)cc1)[C@H]1CCNC1)S(C)(=O)=O [Example 3-4, N-Acetyl-N-[(S)-2-(S)-pyrrolidin-3-yl-2-(4-trifluoromethylphenoxy)ethyl]-methanesulfonamide]
≤ 100 nM | ≤ 100 nM | O=C(O)c1ccc(S(=O)(=O)NC[C@@H](Oc2ccc(C(F)(F)F)cc2)[C@H]2CCNC2)cc1 [Example 3-21, 4-[(S)-2-(S)-Pyrrolidin-3-yl-2-(4-trifluoromethylphenoxy)ethylsulfamoyl]-benzoic acid]
≤ 10 nM | ≤ 10 nM | CS(=O)(=O)NC[C@@H](Oc1ccc(C(F)(F)F)cc1)[C@H]1CCNC1 [Example 3-1, N-[(S)-2-(S)-Pyrrolidin-3-yl-2-(4-trifluoromethylphenoxy)ethyl]-methanesulfonamide]
≤ 100 nM |  | O=S(=O)(NC[C@@H](Oc1ccc(C(F)(F)F)cc1)[C@H]1CCNC1)c1cnc[nH]1 [Example 3-13, 3H-Imidazole-4-sulfonic acid [(S)-2-(S)-pyrrolidin-3-yl-2-(4-trifluoromethylphenoxy)ethyl]amide]

Source: patent publication US8637568B2, “Serotonin reuptake inhibitors” (Theravance, Inc., priority 2010, dated 2014)
